Assay results: patent US12016833B2 (ACEBiomed, Inc., priority 2020, dated 2024)
Like-named read-outs stand apart in the source and are kept apart here.

What was measured:
AMPK [1] = conditions: HFD rats; colchicine 100 μg/kg alone or with metformin 100 mg/kg; FIG. 6
Method: (§1) The drugs were administered with a high fat diet for a total of 6 weeks, and administered by oral gavage 3 times a week.

obesity-induced rats [2] = test: Fat accumulated in liver tissue, oil red O staining; type: in vivo; conditions: HFD rats; FIG. 5
From the text: In addition, in order to examine a quantitative change of fat accumulated in the liver tissues of the rats, the fat was confirmed by staining using an oil red O method, and the results were shown in FIG. 5.

obesity-induced rats [3] = conditions: HFD rats
Method: as §1

[4] = HFD rats; colchicine (10 μg/kg) alone or colchicine (10 μg/kg)/metformin (50 mg/kg), oral gavage 3 times a week, 6 weeks; FIG. 2
Method: as §1

obesity-induced rats [5] = conditions: HFD rats; remark: listed apart in the source
Method: as §1

AMPK [6] = conditions: drug treatment for 7 hours; FIG. 7
ACC [7] = conditions: HFD rats; colchicine 100 μg/kg alone or with metformin 100 mg/kg; FIG. 6
Method: as §1

obesity-induced rats [8] = conditions: HFD rats; remark: listed apart in the source
Method: as §1

obesity-induced rats [9] = test: Anatomical test of liver cross-sections by H&E staining; type: in vivo; conditions: HFD rats; colchicine 100 μg/kg alone or with metformin 100 mg/kg; FIG. 4
From the text: For the anatomical test of the cross-sections of the livers of the rats, H&E staining was applied, and the results were shown in FIG. 4.

ACC [10] = conditions: rat AML12 liver cell line; drug treatment for 7 hours; FIG. 7
[11] = colchicine 10 μg/kg alone, Table 1
[12] = colchicine 50 μg/kg alone, Table 1
[13] = colchicine 100 μg/kg alone, Table 1
[14] = colchicine 100 μg/kg alone, Table 2
[15] = colchicine 200 μg/kg alone, Table 1
[16] = colchicine 10 μg/kg alone, Table 3
[17] = colchicine 50 μg/kg alone, Table 3
[18] = colchicine 100 μg/kg alone, Table 3
[19] = colchicine 100 μg/kg alone, Table 4
[20] = colchicine 200 μg/kg alone, Table 3

## COc1cc2c(c(OC)c1OC)-c1ccc(OC)c(=O)cc1[C@@H](NC(C)=O)CC2 [Colchicine]
AMPK [1]
  activation of AMPK in liver tissues: partially recovered
obesity-induced rats [2]
  fat accumulation in the liver tissues (oil red O): reduced
obesity-induced rats [3]; FIG. 3
  Ballooning degeneration: reduced
  Portal inflammation: reduced
  macrovesicular steatosis: no effect
  microvesicular steatosis: reduced
obesity-induced rats [3]; [11]
  Ballooning degeneration: 2
  Fatty necrosis: 3
  Fibrosis: 3
  Portal inflammation: 2
  Total score: 10
obesity-induced rats [3]; [12]
  Ballooning degeneration: 2
  Fatty necrosis: 2
  Fibrosis: 2
  Portal inflammation: 2
  Total score: 8
obesity-induced rats [3]; [13]
  Ballooning degeneration: 1
  Fatty necrosis: 2
  Fibrosis: 1
  Portal inflammation: 1
  Total score: 5
obesity-induced rats [3]; [14]
  Ballooning degeneration: 1
  Fatty necrosis: 2
  Fibrosis: 1
  Portal inflammation: 2
  Total score: 6
obesity-induced rats [3]; [15]
  Ballooning degeneration: 2
  Fatty necrosis: 2
  Fibrosis: 1
  Portal inflammation: 2
  Total score: 7
[4]
  change in weights of the whole rats: no significant change
obesity-induced rats [5]; colchicine 10 μg/kg alone, Table 5
  Hydroxyproline: 345.28 ± 8.14 μg/g of liver
obesity-induced rats [5]; colchicine 50 μg/kg alone, Table 5
  Hydroxyproline: 326.46 ± 14.55 μg/g of liver
obesity-induced rats [5]; colchicine 100 μg/kg alone, Table 5
  Hydroxyproline: 308.13 ± 5.04 μg/g of liver
obesity-induced rats [5]; colchicine 100 μg/kg alone, Table 6
  Hydroxyproline: 316.68 ± 13.36 μg/g of liver
AMPK [6]
  activation of AMPK: increased
ACC [7]
  activation of ACC in liver tissues: partially recovered
obesity-induced rats [8]; [16]
  ALT: 1742.57 ± 102.71 U/L
  AST: 1766.90 ± 90.48 U/L
  Total protein: 5.07 ± 0.30 g/dL
obesity-induced rats [8]; [17]
  ALT: 1602.38 ± 61.31 U/L
  AST: 1759.49 ± 61.71 U/L
  Total protein: 5.21 ± 0.33 g/dL
obesity-induced rats [8]; [18]
  ALT: 1466.48 ± 49.34 U/L
  AST: 1614.70 ± 78.28 U/L
  Total protein: 5.24 ± 0.13 g/dL
obesity-induced rats [8]; [19]
  ALT: 1508.64 ± 102.38 U/L
  AST: 1574.22 ± 75.98 U/L
  Total protein: 5.13 ± 0.22 g/dL
obesity-induced rats [8]; [20]
  ALT: 1735.40 ± 86.49 U/L
  AST: 1833.70 ± 131.74 U/L
  Total protein: 5.09 ± 0.32 g/dL
obesity-induced rats [9]
  steatosis in the liver tissues (H&E staining): reduced
ACC [10]
  activation of ACC: increased
